Experimental data from PubChem BioAssay (NCI).
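A five-concentration, 48-hour dose response in 96-well plates underlies each endpoint, interpolated linearly between surrounding concentrations. GI50: concentration for 50% inhibition of growth. TGI: total growth inhibition.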

Experiments:
Assay in all cases: DTP human tumour cell line panel, 48 h
M14 melanoma = tested on: M14 melanoma
SF-268 CNS = tested on: SF-268 CNS
SF-539 CNS = tested on: SF-539 CNS
OVCAR-8 ovarian = tested on: OVCAR-8 ovarian
K-562 leukemia = tested on: K-562 leukemia
HT29 colon = tested on: HT29 colon
EKVX NSCLC = tested on: EKVX NSCLC
MDA-MB-231 breast = tested on: MDA-MB-231 breast
UACC-257 melanoma = tested on: UACC-257 melanoma
MCF7 breast = tested on: MCF7 breast

SMILES	GI50 (M14 melanoma) [µM]	TGI (M14 melanoma) [µM]	GI50 (SF-268 CNS) [µM]	TGI (SF-268 CNS) [µM]	GI50 (SF-539 CNS) [µM]	TGI (SF-539 CNS) [µM]	GI50 (OVCAR-8 ovarian) [µM]	TGI (OVCAR-8 ovarian) [µM]	GI50 (K-562 leukemia) [µM]	TGI (K-562 leukemia) [µM]	GI50 (HT29 colon) [µM]	TGI (HT29 colon) [µM]	GI50 (EKVX NSCLC) [µM]	TGI (EKVX NSCLC) [µM]	GI50 (MDA-MB-231 breast) [µM]	TGI (MDA-MB-231 breast) [µM]	GI50 (UACC-257 melanoma) [µM]	TGI (UACC-257 melanoma) [µM]	GI50 (MCF7 breast) [µM]	TGI (MCF7 breast) [µM]
Cn1nc(C(F)(F)F)c(-c2ccc(Cl)c(C(F)(F)F)c2)c1-c1ccc(OCc2ccc(Cl)cc2)cc1O	1.81	6.85	1.77	7.52	1.65	5.95	1.73	6.37	1.84	7.47	1.62	5.42	1.73	7.73	1.59	5.41	1.37	4.09	1.52	6.01
CC[C@@]1(O)C(=O)NCc2c1cc1n(c2=O)Cc2cc3ccccc3nc2-1	1.49	15.1	0.706	> 100	1.71	11	2.12	> 44.8	4.4	> 100	9.05	> 93.7	> 47.9	> 100	> 100	> 100	7.95	> 59.1	0.823	–
COc1ccc(-c2ccc(/C=C/C(=O)NO)cc2)cc1	1.45	7.64	0.982	5.58	0.913	5.18	0.896	4.62	2.39	> 100	3.56	> 100	2.23	12.9	1.17	13.4	2.13	13.8	0.639	19.2
C/C(=C\c1ccc(Cl)cc1)C(C)(C)C(=O)O	–	> 100	–	> 100	–	> 100	–	> 100	–	> 100	–	> 100	–	> 100	–	> 100	–	> 100	–	> 100
O=C(/C=C/c1ccc(C(F)(F)F)cc1)c1ccc(Nc2nc(NCCO)nc(NCCO)n2)cc1	3.96	17.1	2.8	11.5	1.68	3.38	3.31	20.2	2.84	8.89	2.5	6.91	3.49	16.8	3.29	13.8	10.3	23.4	1.66	5.16
COc1ccc(-c2oc(=O)ccc2C#Cc2cc(OC)c(OC)c(OC)c2)cc1O	26.9	> 100	15.7	58.5	20	86.2	35.2	> 100	13.8	> 100	37.9	> 100	66.7	> 100	11.6	> 100	36.4	> 100	15.9	51.7
CC(=O)Oc1ccc(OC(C)=O)c2ccccc12	16.1	30.4	10.5	22.3	13.2	26.4	6.66	22.7	3.39	22	34.6	> 100	10.4	24.7	1.17	2.48	3.95	13.8	7.98	27.6
